Literature values in patent publication US20100120723A1, “PHARMACEUTICAL COMPOSITION COMPRISING A HOT-MELT GRANULATED LUBRICANT” (priority 2006, published 2010).

Test system: bone resorption
Conditions: animal models of bone resorption

## CCCCCN(C)CCC(O)(P(=O)(O)O)P(=O)(O)O [Sodium ibandronate]
  potency relative to alendronate, risedronate, pamidronate and clodronate: many times more potent
